Series [1] can be described thus: Inhibition of mCPP induced anxiety (light-dark apparatus). As to conditions: for minimal effective dose: Rattus norvegicus, ip, treated twenty minutes before mCPP s.c., read-out: MED (minimal effective dose), inhibition of mCPP induced anxiety; for effect on mCPP induced anxiety (in words): rat model, Compound A up to 3.0 mg/kg i.p. The class given is in vivo, male Wistar rats. The protocol: The tests were carried out on male Wistar rats weighing 160-220 g according to Kennett [Kennett, G. A., Whitton, P., Shah, K. and Curzon, G. Eur. J. Pharmacol., 164: 445-454, 1989.]. The animals were treated either with the test compound or with vehiculum (0.4% methyl cellulose solution). Twenty minutes later either mCPP (m-chlorophenyl-piperazin) or physiological saline was administered subcutaneously. The animals were kept in the dark for additional 20 minutes, then they were placed into the light-dark apparatus (Omnitech, Digiscan, Model RXYZCM16) and their motor activity was recorded for five minutes. The testbox consisted of one dark and one lit compartment of the same size (39×20×29 cm) with an 8×8 gate providing free passage for the animals between the two compartments. The lit area was illuminated by a 40 W red light bulb 30 cm above the floor. Motor activity was recorded as the number of interruptions of the infrared light beams (16 beams 2 cm and 16 beams 8 cm above the floor). The number of crossing in the lit compartment was considered as the measure of antagonistic effect on mCPP induced anxiety. Data were statistically analyzed by one way ANOVA followed by Dunnet's t-test.

Series [2] can be described thus: animal or person. The class given is in vivo, male NMRI mice. As to conditions: for ED50: Mus musculus, po, 1 h, read-out: ED50, potentiation of hexobarbital induced narcosis. The procedure:
Potentiation of Hexobarbital Induced Narcosis
Male NMRI mice weighing 20-25 g were treated p.o. with the test compound or with vehiculum in 20 ml/kg volume 60 minutes prior to the iv. injection of 40 mg/kg (10 ml/kg) hexobarbital. The sleeping animals were placed on a flat surface lying on their left side and the accurate sleeping and awakening times were recorded. The animals were considered to be awaken when they rolled up from their side.
Sleeping times 2.5 times higher than the average of the control group were considered as criterion for potentiation (cut up method), results were expressed as percent increase compared to control values, ED50 values were calculated from the dose response curves according to Litchfield-Wilcoxon.

Series [3] addresses T1, 5-HT2A (Rattus norvegicus, UniProt P14842).
T1 construct: from tissue; host or cells: male Wistar rat frontal cortex, membrane fraction
Put plainly: Receptor binding assay, 5-HT2A (3H-ketanserin). Also on record: species or system male Wistar rat. Particulars: 3H-ketanserin 1.0 nM, frontal cortex. The protocol: (§1) The different brain regions of 120-200 g male Wistar rats were used for receptor binding assays except for 5-HT2c receptors where binding studies were performed on porcine choroid plexus. Protein content of the membrane fraction was determined as described by Lowry [Lowry, O. H., Rosebrough, M. J., Farr, A. L. and Randall, R. Y.: J. Biol. Chem., 193: 265-275, 1951].
5-HT2A ^3 H-ketanserin frontal cyprohepta- Leysen, J. E.
1.0 nM cortex dine et al.: Mol.

A short description of series [4]: Inhibition of spontaneous motor activity. The class given is in vivo, mice. Particulars: for ED50: Mus musculus, 1 h, treated 60 minutes prior to the test, ID50 by linear regression analysis. The procedure:
Inhibition of Spontaneous Motor Activity
Spontaneous motor activity was measured as described earlier [Borsy et al., Arch. Int. Pharmacodyn. 124: 1-, 1960.] in a 10 box apparatus (Dews) 3--3 mice in each compartment. Mice were treated either with test compounds or with vehiculum 60 minutes prior to the test. The number of interruptions of the infrared light beams was counted, ID50 values were calculated by linear regression analysis (Table IV).

For series [5], the target named is T2, D2 (Rattus norvegicus, UniProt P61169).
T2 construct: from tissue; host or cells: male Wistar rat striatum, membrane fraction
T2 sequence (P61169 whole entry): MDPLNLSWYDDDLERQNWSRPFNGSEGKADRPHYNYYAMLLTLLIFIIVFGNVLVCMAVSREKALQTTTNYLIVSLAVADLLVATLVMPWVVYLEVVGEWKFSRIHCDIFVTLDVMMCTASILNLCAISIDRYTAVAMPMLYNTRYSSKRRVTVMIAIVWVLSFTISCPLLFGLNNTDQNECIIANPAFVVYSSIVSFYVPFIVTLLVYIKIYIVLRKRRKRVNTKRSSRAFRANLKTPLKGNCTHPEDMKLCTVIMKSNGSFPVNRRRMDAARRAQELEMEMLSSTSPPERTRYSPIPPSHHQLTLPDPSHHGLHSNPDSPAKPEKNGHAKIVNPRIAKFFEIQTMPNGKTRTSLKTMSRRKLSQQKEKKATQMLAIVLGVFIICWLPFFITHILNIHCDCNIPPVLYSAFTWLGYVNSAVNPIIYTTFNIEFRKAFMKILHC
Put plainly: Receptor binding assay, D2 (3H-spiperone). Particulars: 3H-spiperone 0.5 nM, striatum. The arrangement: species or system male Wistar rat. The procedure:
as §1
D2 ^3 H-spiperone striatum butaclamol Leff, S. et al.,

Series [6] addresses T3, Sigma (Rattus norvegicus, UniProt Q9R0C9).
T3 construct: from tissue; host or cells: male Wistar rat cerebellum, membrane fraction
Put plainly: Receptor binding assay, Sigma (3H-pentazocine). The arrangement: species or system male Wistar rat. As to conditions: for Ki: Sigma, 3H-pentazocine 3.0 nM, cerebellum. The protocol: as §1
Sigma ^3 H-pentazocine cerebellum haloperidol Costa B. R. et
3.0 nM (10 μM) al., Febs Lett.,

Series [7] has as its target T4, 5-HT1A (Rattus norvegicus, UniProt P19327).
T4 construct: from tissue; host or cells: male Wistar rat frontal cortex, membrane fraction
T4 sequence (P19327 1-422): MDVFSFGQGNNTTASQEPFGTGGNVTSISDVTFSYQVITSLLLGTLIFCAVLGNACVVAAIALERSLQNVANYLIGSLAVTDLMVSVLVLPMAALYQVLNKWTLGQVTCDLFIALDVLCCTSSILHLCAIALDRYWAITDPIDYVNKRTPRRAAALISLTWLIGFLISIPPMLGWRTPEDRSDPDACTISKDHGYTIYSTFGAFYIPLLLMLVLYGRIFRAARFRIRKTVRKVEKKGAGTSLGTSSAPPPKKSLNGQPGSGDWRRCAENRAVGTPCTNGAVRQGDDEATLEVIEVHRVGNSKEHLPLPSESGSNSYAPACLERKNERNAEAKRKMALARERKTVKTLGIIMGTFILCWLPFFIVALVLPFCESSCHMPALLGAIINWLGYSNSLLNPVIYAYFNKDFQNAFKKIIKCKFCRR
Put plainly: Receptor binding assay, 5-HT1A (3H-8-OH-DPAT). The arrangement: species or system male Wistar rat. Particulars: 3H-8-OH-DPAT 0.7 nM, frontal cortex. The protocol: as §1
frontal 5-HT Peroutka, S.
0.7 nM cortex (10 μM) J. J.

Series [8] is described as follows: Elevated plus-maze test. The class given is in vivo, male Sprague-Dawley rats. Particulars: for minimal effective dose: Rattus norvegicus, 1 h, treated 60 minutes prior to the test, based on times spent in the open arms, read-out: MED (minimal effective dose), elevated plus maze; for effect in the elevated plus maze test (in words): rat, in vivo. The protocol:
The elevated plus-maze consisted of two open and two 40 cm wall enclosed arms of the same size (50×15 cm) arranged in the shape of a cross. The arms of the same type were opposite to each other. The junction of the four arms forms a central square area (15×15 cm). The apparatus is made of wooden material elevated to a height of 50 cm from the floor and illuminated by a dim light from above.
Male Sprague-Dawley rats weighing 220-260 g were treated with the test or reference compounds 60 minutes prior to the test. They were then placed onto the central square area and were subjected to the test for 5 minutes. The following parameters were determined:
Time spent in the open arms;
Time spent in the closed arms;
Number of entries into the open arms;
Number of entries into the closed arms.
A compound was considered to be effective when significant increase was found either in the time spent in the open arms or in the number of entries into the open arms when compared to the control animals. Minimum Effective Doses (MED) were determined based on the times spent in the open arms for each compound examined (Table II) [Pelow et al., J. Neurosci. Methods, 14: 149-169, 1985].

The test system of series [9] is 5-HT2C. Put plainly: biochemical. The class given is binding, porcine. Particulars: among 5-HT receptors. The protocol: as §1
(§2) 5-HT2C ^3 H-mesulergin choroid mianserin Pazos, A. et
(§3) 1.0 nM plexus (1 μM) al. Eur. J.

For series [10], the target named is T5, 5-HT2C (Sus scrofa, UniProt K7GSR7).
T5 construct: from tissue; host or cells: porcine choroid plexus
T5 sequence (K7GSR7 1-457): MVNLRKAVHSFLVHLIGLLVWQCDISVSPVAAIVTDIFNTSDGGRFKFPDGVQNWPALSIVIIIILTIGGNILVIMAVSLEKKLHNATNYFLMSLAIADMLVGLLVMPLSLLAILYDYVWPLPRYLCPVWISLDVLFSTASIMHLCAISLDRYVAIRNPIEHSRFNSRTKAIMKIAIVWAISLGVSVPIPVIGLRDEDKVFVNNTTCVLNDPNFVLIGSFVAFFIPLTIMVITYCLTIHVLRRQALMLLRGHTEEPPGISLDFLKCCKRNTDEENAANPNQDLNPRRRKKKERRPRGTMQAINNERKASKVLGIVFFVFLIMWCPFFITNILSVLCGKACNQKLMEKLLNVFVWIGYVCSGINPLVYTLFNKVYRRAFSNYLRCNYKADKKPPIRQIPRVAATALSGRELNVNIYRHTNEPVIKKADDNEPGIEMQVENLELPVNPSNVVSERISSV
Put plainly: biochemical. The class given is binding, porcine. The protocol: as §1, §2, §3

In series [11] the target is T6, D1 (Rattus norvegicus, UniProt P18901).
T6 construct: from tissue; host or cells: male Wistar rat striatum, membrane fraction
T6 sequence (P18901 whole entry): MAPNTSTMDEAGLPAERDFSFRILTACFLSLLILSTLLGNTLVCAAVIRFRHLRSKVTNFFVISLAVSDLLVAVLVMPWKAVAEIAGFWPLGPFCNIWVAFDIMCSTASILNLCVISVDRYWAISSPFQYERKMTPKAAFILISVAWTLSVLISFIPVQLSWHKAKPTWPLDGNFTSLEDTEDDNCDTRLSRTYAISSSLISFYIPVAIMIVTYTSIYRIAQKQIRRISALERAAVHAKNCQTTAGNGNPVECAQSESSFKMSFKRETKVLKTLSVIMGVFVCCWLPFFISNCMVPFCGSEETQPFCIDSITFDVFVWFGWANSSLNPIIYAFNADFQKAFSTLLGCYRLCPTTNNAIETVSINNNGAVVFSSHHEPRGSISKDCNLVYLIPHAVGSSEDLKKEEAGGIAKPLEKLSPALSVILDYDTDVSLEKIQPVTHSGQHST
Put plainly: Receptor binding assay, D1 (3H-SCH 23390). The arrangement: species or system male Wistar rat. As to conditions: 3H-SCH 23390 0.78 Nm, striatum. The protocol: as §1
D1 ^3 H-SCH 23390 striatum cis- Hietala J. et
0.78 Nm flupentixol al., Neurosci.

T3 sequence (Q9R0C9 whole entry): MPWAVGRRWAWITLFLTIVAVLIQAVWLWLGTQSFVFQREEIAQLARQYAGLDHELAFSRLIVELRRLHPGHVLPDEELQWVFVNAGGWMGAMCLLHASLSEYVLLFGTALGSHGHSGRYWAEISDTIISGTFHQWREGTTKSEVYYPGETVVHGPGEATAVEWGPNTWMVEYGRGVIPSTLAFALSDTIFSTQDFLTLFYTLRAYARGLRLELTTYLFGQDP
T1 sequence (P14842 whole entry): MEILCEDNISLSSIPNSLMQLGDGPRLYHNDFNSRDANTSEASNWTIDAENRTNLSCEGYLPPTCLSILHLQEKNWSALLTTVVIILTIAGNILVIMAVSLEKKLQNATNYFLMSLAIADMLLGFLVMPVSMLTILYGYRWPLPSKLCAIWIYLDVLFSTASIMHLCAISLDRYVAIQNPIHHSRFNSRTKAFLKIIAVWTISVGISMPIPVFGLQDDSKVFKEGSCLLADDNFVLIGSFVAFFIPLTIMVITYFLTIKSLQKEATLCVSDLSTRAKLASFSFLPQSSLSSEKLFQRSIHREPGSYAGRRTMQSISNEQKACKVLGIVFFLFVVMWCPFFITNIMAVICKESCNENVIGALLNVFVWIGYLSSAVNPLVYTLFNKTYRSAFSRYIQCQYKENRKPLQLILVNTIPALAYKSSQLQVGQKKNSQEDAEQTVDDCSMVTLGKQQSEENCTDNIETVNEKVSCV

A word on the minimal effective dose: it is the lowest level tested that produced the effect sought. By ED50 is commonly meant the midpoint of the dose-response relation. What is called Ki is a dissociation constant, usually derived from enzyme kinetics or from competition with a known ligand. With `CNCCO[C@]1(c2ccccc2)C[C@H]2CC[C@]1(C)C2(C)C` [Compound A, (1R,2S,4R)-(-)-2-phenyl-2-methylaminoethoxy-1,7,7-trimethyl-bicyclo[2.2.1]heptane-fumarate], the minimal effective dose in [1] was more than 3 mg/kg; in series [8] it was 1 mg/kg. Besides, the “effect on mCPP induced anxiety (in words)” value in series [1] is given as “completely ineffective up to 3.0 mg/kg i.p”. Moreover, the ED50 in series [2] was determined as 4 mg/kg; in series [4], 57 mg/kg. In addition, in series [2] (mouse, in vivo), the “potentiation of hexobarbital induced narcosis (in words)” value was “potentiated the hexobarbital induced narcosis to a lesser extent”. For the same compound, the Ki is more than 100 nM in series [3]; more than 100 nM in [5]; more than 100 nM in series [6]; more than 10000 nM in series [7]; 20 nM in series [10]; 10000 nM in [11]. Besides, the “inhibition of spontaneous motor activity (in words)” value in [4] (sedato-hypnotic side effect, compared to Compound B) is “inhibited the spontaneous motor activity in higher doses only”. The “binding at sigma receptors (in words)” value in series [6] is reported as “does not”. Moreover, the “effect in the elevated plus maze test (in words)” value in series [8] is given as “effective in the elevated plus maze test”. The “selectivity of binding among 5-HT receptors (in words)” value in series [9] is listed as “binds only to 2C”.
On to `CN(C)CCO[C@]1(c2ccccc2)C[C@H]2CC[C@]1(C)C2(C)C` [Compound B, (1R,2S,4R)-(-)-2-phenyl-2-dimethylaminoethoxy-1,7,7-trimethyl-bicyclo[2.2.1]heptane-fumarate, reference compound], for which the minimal effective dose in series [1] is 0.5 mg/kg; in series [8], more than 10 mg/kg. In addition, the “effect on mCPP induced anxiety (in words)” value in series [1] is recorded as “significantly antagonized the mCPP induced anxiety”. In addition, the 50% effective dose (ED50) in series [2] stood at 0.5 mg/kg; in [4], 31.5 mg/kg. Moreover, the Ki in [3] was 35 nM; in series [5] it was more than 100 nM; in [6], 52 nM; in [7] it was more than 10000 nM; in series [10], 9 nM; in [11], more than 1000 nM. Also, the “binding at sigma receptors (in words)” value in series [6] is reported as “shows significant binding at sigma receptors”. Moreover, in series [8], the “effect in the elevated plus maze test (in words)” value is on record as “did not show any effect”. Also, in series [9], the “selectivity of binding among 5-HT receptors (in words)” value is on record as “not selective at 2C”.

The values above are taken from patent US6093747A, “1,7,7-trimethyl-bicyclo[2.2.1]heptane derivatives as anxiolytic agents having enhanced receptor specificity” (priority 1996, dated 2000).
